Article PMC3664642, “A Peptide against Soluble Guanylyl Cyclase α1: A New Approach to Treating Prostate Cancer” (PLoS ONE, 2013)
Entries after “also recorded” stand apart in the source; their conditions may differ. Where no end group is shown, it is not given here.

Columns and labels:
[1] = target: T1, sGCα1 (Homo sapiens, UniProt Q02108); assay: Immunocytochemistry co-localization in LNCaP cells; type: cell-based; conditions: 25 µM Biotin-labeled Peptide A-8R, 2 hrs, Fig. 2A
T1 sequence (Q02108 1-690): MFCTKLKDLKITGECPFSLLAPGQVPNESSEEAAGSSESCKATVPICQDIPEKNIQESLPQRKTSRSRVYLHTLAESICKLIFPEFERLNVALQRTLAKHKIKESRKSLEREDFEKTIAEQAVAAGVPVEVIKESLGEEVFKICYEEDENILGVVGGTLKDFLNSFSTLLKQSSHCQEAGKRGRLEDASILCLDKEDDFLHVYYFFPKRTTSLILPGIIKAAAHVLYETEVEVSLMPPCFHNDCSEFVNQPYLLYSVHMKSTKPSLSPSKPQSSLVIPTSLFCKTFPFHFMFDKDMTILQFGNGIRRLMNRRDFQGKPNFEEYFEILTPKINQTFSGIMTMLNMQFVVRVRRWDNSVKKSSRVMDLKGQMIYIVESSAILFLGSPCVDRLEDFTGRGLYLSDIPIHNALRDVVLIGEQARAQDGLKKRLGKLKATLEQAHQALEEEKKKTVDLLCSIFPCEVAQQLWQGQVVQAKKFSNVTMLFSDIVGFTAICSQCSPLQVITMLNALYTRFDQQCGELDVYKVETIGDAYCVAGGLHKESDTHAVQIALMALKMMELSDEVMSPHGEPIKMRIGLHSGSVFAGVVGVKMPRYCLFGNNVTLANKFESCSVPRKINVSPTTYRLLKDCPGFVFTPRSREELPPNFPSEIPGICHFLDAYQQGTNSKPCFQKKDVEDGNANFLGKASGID
Method: Immunocytochemistry was used to study the subcellular localization of sGCα1 and Biotin-labeled Peptide-8R in LNCaP cells. FITC-labeled anti-sGCα1 antibody (1∶100 dilution; Santa Cruz Biotechnology), anti-Biotin antibody (1∶200; Santa Cruz Biotechnology) were used for immunocytochemisty as described.
(§1) Figure 2 Peptide A-8R interacts with sGCα1 in prostate cancer cells. (A) LNCaP cells were treated with 25 µM Biotin-labeled Peptide A-8R for 2 hrs and subjected to immunocytochemistry using anti-sGCα1 or anti-Biotin antibody to measure subcellular co-localization of endogenous sGCα1 and Peptide A-8R. DAPI was used to stain nuclei. (B) LNCaP cytosolic extracts were incubated with Peptide A-8R-Biotin and subjected to purification using streptavidin-agarose. This pull-down experiment was repeated with competing excess amount of unlabeled Peptide C-8R or Peptide A-8R. In both cases Western blotting was used to measure the co-purification of sGCα1. (C) LNCaP cell extract was incubated with different concentrations of Peptide A-8R-FITC and endogenous sGCα1 was immunoprecipitated. Co-purified Peptide A-8R-FITC was quantified by measuring fluorescence signal emission. Nonlinear regression analysis was used to determine an affinity for Peptide A-8R binding to sGCα1. […] Cell number was measured after 0–48 hrs of incubation. […]

[2] = test system: C81 xenograft tumors; assay: C81 mouse xenograft tumor study; type: in vivo
Method: 2×10^6 C81 cells in 50 µL of growth medium was mixed with 50 µL Matrigel (BD Biosciences) and injected into both flanks of 4–6-week old SCID male mice. When tumor sizes reached 200 mm^3, 50 µL of Peptide A-8R (40 mg Peptide A-8R/Kg of animal) or Vehicle (DMSO) was directly injected into the tumors every other day. Injections were stopped after 5 times and tumors were measured every 3 days. Mice were euthanized after 3 weeks and tumors were excised. All procedures were approved by the University of Toledo Division of Lab Animal Recourses (DLAR). Protein extracts were prepared by boiling the tumor tissue in 3× SDS buffer, and evaluated by SDS-PAGE gel.
This study was carried out in strict accordance with the recommendations in the Guide for the Care and Use of Laboratory Animals of the National Institutes of Health. The protocol was approved by the Institutional Animal Care and Use Committee of the University of Toledo (Protocol Number: 106418). During the experiments all animals were monitored daily for morbidity and all efforts were made to minimize suffering. At the end of the study all animals were euthanized using inhalation of carbon dioxide, after which surgery was performed to excise tumors from all animals.
(A) Mouse xenograft tumors derived from C81 cells were treated with Vehicle or Peptide A-8R, after which they were allowed to grow for an additional three weeks without treatment. Data points represent average tumor size of three animals for each treatment plus standard deviations. Note that there is a statistical difference (P<0.00004) in average tumor size for each day of tumor measurement. Arrow represents day of last injection of Vehicle or Peptide A-8R. […] Bar graphs represent averages of each set of three tumors plus standard deviations. Asterisks indicate statistical significance (P<0.02). (C) Two tumors, one on each flank of the same animal, were treated with either Vehicle or Peptide A-8R.

[3] = target: T1, sGCα1; assay: Binding affinity by immunoprecipitation with FITC-tagged peptide; parameters: endogenous sGCα1 was immunoprecipitated; endogenous in cells; host or cells: C81 cells (methods); conditions: C81 whole-cell extract (legend: LNCaP extract), room temperature, 2 hours, IP with anti-sGCα1, fluorescence 485/521 nm, nonlinear regression
Method: For binding affinity experiments, whole-cell extract from C81 cells was incubated with different concentrations of Peptide A-8R tagged with FITC at room temperature for 2 hours. IPs were performed using antibodies against sGCα1 or rabbit IgG as control. Peptide A-8R-FITC pulldown was measured by fluorescence signal at excitation and emission wavelengths of 485 and 521 nm, respectively, using a multi-well fluorescence plate reader.
as §1, with “emission.” for “emission. Nonlinear regression analysis was used to determine an affinity for Peptide A-8R binding to sGCα1.”

Substance: Ac-TFCKAFPFHIIRRRRRRRR [Peptide A-8R]
- co-localization with sGCα1 [1]: colocalizes with sGCα1 only in the cytoplasm of LNCaP cells
- tumor growth during five injections, C81 xenograft ([2]; 40 mg/Kg intratumoral, every other day, 5 times, Fig. 6A, 6B, three animals per treatment, P<0.00004): stopped tumor growth and actually caused some tumor regression during the five injections of peptide
- anti-tumor activity, C81 xenograft (summary) ([2]; intra-tumoral injection): able to stop tumor growth; also recorded: blocks the growth of castration-resistant prostate tumors; also recorded: strong anti-cancer activity
- tumor growth three weeks after treatment stopped, C81 xenograft ([2]; three weeks after last injection, Vehicle tumors grew more than three-fold, Fig. 6A): did not grow at all three weeks after Peptide treatment was stopped
- tumor size in same animal, Peptide- vs Vehicle-treated flank ([2]; two tumors, one per flank of same mouse, Fig. 6C): markedly smaller than the Vehicle-treated tumor
- Kd [3]: 11.6 µM
